Inhibition and IC50 data for 20 molecules are collected here from patent US20240083857A1, “2-Methyl-Quinazolines” (Bayer Pharma Aktiengesellschaft, priority 2017, published 2024).

For experiment [1], the target named is human SOS1 (loading of human K-Ras^G12C-GDP with fluorescent GTP-analog) (Homo sapiens, UniProt Q07889). The experiment is described as follows: Biochemical assay 3: K-Ras^G12C activation assay by hSOS1 (HTRF). Conditions: no GTP; for inhibition at 20 µM: read-out: Assay 3 (KRAS-Activation by SOS no GTP) activity expressed as % inhibition at 20 μM; for IC50: read-out: Assay 3 (KRAS-Activation by SOS no GTP) activity expressed as IC50. (In general: Time-resolved FRET reads energy transfer from a long-lived donor to a nearby acceptor.)

In experiment [2] the target is human SOS1 (nucleotide exchange of K-Ras^G12C) (Homo sapiens, UniProt Q07889). The experiment is described as follows: Biochemical assay 2: K-Ras^G12C activation assay by hSOS1 at high GTP concentration (HTRF). The note with it: high GTP; for IC50: read-out: Assay 2 (KRAS-Activation by SOS high GTP) activity expressed as IC50; for inhibition at 20 µM: read-out: Assay 2 (KRAS-Activation by SOS high GTP) activity expressed as % inhibition at 20 μM.

In experiment [3] the target is K-Ras^G12C : hSOS1 interaction (Homo sapiens, UniProt Q07889). Description: Biochemical assay 1: K-Ras^G12C interaction assay with hSOS1 (HTRF). The note with it: for IC50: read-out: Assay 1 (KRAS-SOS Interaction) activity expressed as IC50; for inhibition at 20 µM: read-out: Assay 1 (KRAS-SOS Interaction) activity expressed as % inhibition at 20 μM. It is filed as binding.

On to `Cc1nc(N[C@H](C)c2ccccc2)c2cc(Br)ccc2n1` [Example 29, 6-bromo-2-methyl-N-[(1R)-1-phenylethyl]quinazolin-4-amine], for which the inhibition at 20 µM in experiment [1] was 44%. Further, the figures for the IC50 in experiment [2] and in experiment [3] were 10.9 µM and 10.2 µM, respectively.

As for `C/C=C(\C)c1ccc([C@H](C)Nc2nc(C)nc3cc(OC)c(OC)cc23)s1` (racemic) [Example 143, N-[1-{5-[(2E)-but-2-en-2-yl]thiophen-2-yl}ethyl]-6,7-dimethoxy-2-methylquinazolin-4-amine], the IC50 was found to be 17.8 µM in experiment [1], 8.76 µM in experiment [2] and 7.64 µM in experiment [3].

Turning to `COc1cc2nc(C)nc(N[C@H](C)c3cccc(-c4ccc(C(C)(C)C#N)cc4)c3)c2cc1OC` [Example 69, 2-(3′-{(1R)-1-[(6,7-dimethoxy-2-methylquinazolin-4-yl)amino]ethyl}biphenyl-4-yl)-2-methylpropanenitrile], the 50% inhibitory concentration (IC50) came out at 9.07 µM in experiment [1], 5.41 µM in experiment [2] and 3.92 µM in experiment [3].

`COc1cc2nc(C)nc(N[C@@H](C)c3ccc(-c4ccccc4C(=O)N(C)C)s3)c2cc1OC` (racemic) [Example 48, 2-(5-{1-[(6,7-dimethoxy-2-methylquinazolin-4-yl)amino]ethyl}thiophen-2-yl)-N,N-dimethylbenzamide]: the IC50 in experiment [1] worked out at 4.52 µM; in experiment [2], 3.27 µM; in experiment [3] it was 2.12 µM.

In the case of `COc1cc2nc(C)nc(N[C@H](C)c3cccc(-c4ccc(C(C)=O)s4)c3)c2cc1OC` [Example 95, 1-[5-(3-{(1R)-1-[(6,7-dimethoxy-2-methylquinazolin-4-yl)amino]ethyl}phenyl)thiophen-2-yl]ethanone], the IC50 in experiment [1] amounted to 1.08 µM; in experiment [2], 0.473 µM; in experiment [3], 0.801 µM.

For `COc1cc2nc(C)nc(N[C@H](C)c3cccc(/C=C/C4CC4)c3)c2cc1OC` [Example 63, N-[(1R)-1-{3-[(E)-2-cyclopropylethenyl]phenyl}ethyl]-6,7-dimethoxy-2-methylquinazolin-4-amine], the IC50 in experiment [1] is 1.88 µM; in experiment [2] it was 1.8 µM; in experiment [3], 1.13 µM.

For `COc1cc2nc(C)nc(N[C@@H](C)c3ccc(-c4cnc(N)nc4)s3)c2cc1OC` (racemic) [Example 131, N-{1-[5-(2-aminopyrimidin-5-yl)thiophen-2-yl]ethyl}-6,7-dimethoxy-2-methylquinazolin-4-amine], the half-maximal inhibitory concentration (IC50) in experiment [1] came to 5.94 µM; in experiment [2] it was 3.37 µM; in experiment [3], 2.23 µM.

As to `COc1cc2nc(C)nc(N[C@H](C)c3cccc(-c4ccoc4)c3)c2cc1OC` [Example 86, N-{(1R)-1-[3-(furan-3-yl)phenyl]ethyl}-6,7-dimethoxy-2-methylquinazolin-4-amine], the IC50 in experiment [1] turned out to be 0.693 µM; in experiment [2] it was 0.935 µM; in experiment [3], 0.581 µM.

In the case of `COc1cc2nc(C)nc(N[C@@H](C)c3ccc(-c4cccc(S(N)(=O)=O)c4)s3)c2cc1OC` (racemic) [Example 130, 3-(5-{1-[(6,7-dimethoxy-2-methylquinazolin-4-yl)amino]ethyl}thiophen-2-yl)benzenesulfonamide], the IC50 in experiment [1] stood at 11.7 µM; in experiment [2], 4.31 µM; in experiment [3], 3.43 µM.

As for `COc1cc2nc(C)nc(N[C@H](C)c3cccc(-c4ccc5c(c4)CC(=O)N5)c3)c2cc1OC` [Example 57, 5-(3-{(1R)-1-[(6,7-dimethoxy-2-methylquinazolin-4-yl)amino]ethyl}phenyl)-1,3-dihydro-2H-indol-2-one], the IC50 in experiment [1] came out at 0.629 µM; in experiment [2] it was 0.401 µM; in experiment [3], 0.414 µM.

`COc1cc2nc(C)nc(N[C@@H](C)c3ccc(-c4cccc5[nH]ccc45)s3)c2cc1OC` (racemic) [Example 171, N-{1-[5-(1H-indol-4-yl)thiophen-2-yl]ethyl}-6,7-dimethoxy-2-methylquinazolin-4-amine]: the figures for the IC50 in experiment [1], in experiment [2] and in experiment [3] were 7.18 µM, 3.37 µM and 5.59 µM, respectively.

For `COc1cc2nc(C)nc(N[C@@H](C)c3ccc(-c4ccc(N5CCOCC5)cc4)s3)c2cc1OC` (stereo in doubt) [Example 43, 6,7-dimethoxy-2-methyl-N-[1-{5-[4-(morpholin-4-yl)phenyl]thiophen-2-yl}ethyl]quinazolin-4-amine], the inhibition at 20 µM in experiment [1] worked out at 16%; in experiment [2], 14%; in experiment [3] it was 30%.

On to `COc1cc2nc(C)nc(N[C@H](C)c3cccc(-c4ccc(OCc5ccccc5)cc4)c3)c2cc1OC` [Example 97, N-{(1R)-1-[4′-(benzyloxy)biphenyl-3-yl]ethyl}-6,7-dimethoxy-2-methylquinazolin-4-amine], for which the values for the inhibition at 20 µM in experiment [1], in experiment [2] and in experiment [3] were 38%, 28% and 39%, respectively.

Consider `COc1cc2nc(C)nc(N[C@@H](C)c3ccc(-c4cncc(C)c4)s3)c2cc1OC` (racemic) [Example 46, 6,7-dimethoxy-2-methyl-N-{1-[5-(5-methylpyridin-3-yl)thiophen-2-yl]ethyl}quinazolin-4-amine], for which the IC50 in experiment [1] stood at 4.1 µM; in experiment [2], 3.82 µM; in experiment [3], 2.37 µM.

Turning to `COc1cc2nc(C)nc(N[C@H](C)c3cccc(-c4cccc(OC(F)(F)F)c4)c3)c2cc1OC` [Example 84, 6,7-dimethoxy-2-methyl-N-{(1R)-1-[3′-(trifluoromethoxy)biphenyl-3-yl]ethyl}quinazolin-4-amine], the IC50 was found to be 11 µM in experiment [1], 7.2 µM in experiment [2] and 5.33 µM in experiment [3].

With `COc1cc2nc(C)nc(N[C@H](C)c3cccc(-c4ccc(C)cc4C)c3)c2cc1OC` [Example 94, N-[{1R)-1-(2′,4′-dimethylbiphenyl-3-yl)ethyl]-6,7-dimethoxy-2-methylquinazolin-4-amine], the values for the IC50 in experiment [1], in experiment [2] and in experiment [3] were 4.28 µM, 3.14 µM and 2.42 µM, respectively.

In the case of `COc1cc2nc(C)nc(N[C@H](C)c3cccc(-c4ccc(C(=O)NCCN(C)C)cc4)c3)c2cc1OC` [Example 74, 3′-{(1R)-1-[(6,7-dimethoxy-2-methylquinazolin-4-yl)amino]ethyl}-N-[2-(dimethylamino)ethyl]biphenyl-4-carboxamide], the half-inhibitory concentration (IC50) turned out to be 0.261 µM in experiment [1], 0.223 µM in experiment [2] and 0.149 µM in experiment [3].

With `COc1cc2nc(C)nc(NC(C)c3ccc(-c4ccccc4CNCC(=O)Nc4ccccc4)s3)c2cc1OC` (stereo not drawn) [Example 289, 2-[2-(5-{1-[(6,7-dimethoxy-2-methylquinazolin-4-yl)amino]ethyl}thiophen-2-yl)benzyl]-N-phenylglycinamide], the IC50 in experiment [1] was determined as 2.73 µM; in experiment [2], 1.18 µM; in experiment [3] it was 2.11 µM.

As for `COc1cc2nc(C)nc(N[C@H](C)c3cccc(-c4ccccc4OC(F)(F)F)c3)c2cc1OC` [Example 83, 6,7-dimethoxy-2-methyl-N-{(1R)-1-[2′-(trifluoromethoxy)biphenyl-3-yl]ethyl}quinazolin-4-amine], the figures for the IC50 in experiment [1], in experiment [2] and in experiment [3] were 17.4 µM, 7.85 µM and 8.5 µM, respectively.

For `COc1cc2nc(C)nc(N[C@H](C)c3cccc(-c4cncnc4)c3)c2cc1OC` [Example 37, 6,7-dimethoxy-2-methyl-N-{(1R)-1-[3-(pyrimidin-5-yl)phenyl]ethyl}quinazolin-4-amine], the IC50 came to 2.69 µM in experiment [1], 1.85 µM in experiment [2] and 1.54 µM in experiment [3].

As a reminder, the inhibition is the change of the read-out against control, counted positive when it falls. For orientation: IC50 means the midpoint of a concentration-inhibition curve.
